Measurements published in patent publication US20100298141A1, “SUBSTITUTED PYRIDINE N-OXIDE HERBICIDES” (E. I. DU PONT DE NEMOURS AND COMPANY, priority 2007, published 2010).

Legend:
duck salad = test: Test C flooded paddy test; type: in vivo, Heteranthera limosa; conditions: Flood
How it was run: (§1)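 In-water treatment: compound dosed into 3 cm flood over soil, water level unchanged throughout. Controls run alongside; visual assessment at day 13–15.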

velvetleaf [1] = test: Test C pre-/postemergence test; type: in vivo, Abutilon theophrasti
How it was run: (§2)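 Seeds were planted and treated preemergence with test chemical in a non-phytotoxic solvent mixture containing surfactant. Postemergence applications of the same formulation went onto plants 2 to 18 cm tall (1- to 4-leaf stage). A dash marks no test result.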

common ragweed = test: Test C pre-/postemergence test; type: in vivo, Ambrosia elation
How it was run: as §2

johnsongrass = test: Test C pre-/postemergence test; type: in vivo, Sorghum halepense
How it was run: as §2

bermudagrass = test: Test C pre-/postemergence test; type: in vivo, Cynodon dactylon
How it was run: as §2

corn = test: Test A pre-/postemergence greenhouse test; type: in vivo, Zea mays; conditions: for Plant response rating, Corn: 0 to 100 scale where 0 is no effect and 100 is complete control; for Corn plant response rating: 0 to 100 scale
How it was run: (§3)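 Visual injury ratings, made relative to untreated controls roughly ten days after treatment, cover both preemergence and postemergence application. Compounds in a surfactant-containing non-phytotoxic solvent were sprayed onto the soil surface after sowing and, simultaneously, onto young plants at the one- to two-leaf stage.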

giant foxtail [2] = test: Test A pre-/postemergence greenhouse test; type: in vivo, Setaria faberi; conditions: for Plant response rating, Foxtail, Giant: 0 to 100 scale where 0 is no effect and 100 is complete control; for Foxtail, Giant plant response rating: 0 to 100 scale
How it was run: as §3

barnyardgrass = test: Test C flooded paddy test; type: in vivo, Echinochloa crus-galli; conditions: Flood
How it was run: as §1

Goosegrass = test: Test C pre-/postemergence test; type: in vivo, Eleusin indica
How it was run: as §2

rice = test: Test C flooded paddy test; type: in vivo, Oryza sativa; conditions: Flood
How it was run: as §1

redroot pigweed = test: Test A pre-/postemergence greenhouse test; type: in vivo, Amaranthus retroflexus; conditions: for Plant response rating, Pigweed: 0 to 100 scale where 0 is no effect and 100 is complete control; for Pigweed plant response rating: 0 to 100 scale
How it was run: as §3

wheat = test: Test A pre-/postemergence greenhouse test; type: in vivo, Triticum aestivum; conditions: for Plant response rating, Wheat: 0 to 100 scale where 0 is no effect and 100 is complete control; for Wheat plant response rating: 0 to 100 scale
How it was run: as §3

eastern black nightshade = test: Test C pre-/postemergence test; type: in vivo, Solanum ptycanthum
How it was run: as §2

velvetleaf [3] = test: Test A pre-/postemergence greenhouse test; type: in vivo, Abutilon theophrasti; conditions: for Plant response rating, Velvetleaf: 0 to 100 scale where 0 is no effect and 100 is complete control; for Velvetleaf plant response rating: 0 to 100 scale
How it was run: as §3

wild oat = test: Test C pre-/postemergence test; type: in vivo, Avena fatua
How it was run: as §2

lambsquarters = test: Test C pre-/postemergence test; type: in vivo, Chenopodium album; conditions: for Plant response rating, Lambsquarters: scale 0 to 100, 0 no effect, 100 complete control
How it was run: as §2

giant foxtail [4] = test: Test C pre-/postemergence test; type: in vivo, Setaria faberii
How it was run: as §2

Surinam grass = test: Test C pre-/postemergence test; type: in vivo, Brachiaria decumbens
How it was run: as §2

[5] = 62 g ai/ha, scale 0 to 100 (0 no effect, 100 complete control)
[6] = 250 g ai/ha, scale 0 to 100, 0 no effect, 100 complete control, 13 to 15 days
[7] = 62 g ai/ha, Preemergence, scale 0 to 100
[8] = 125 g ai/ha, preemergence, scale 0 (no effect) to 100 (complete control)
[9] = Postemergence, 125 g ai/ha, scale 0 to 100, 0 no effect, 100 complete control
[10] = Postemergence, 250 g ai/ha, scale 0 to 100, 0 no effect, 100 complete control
[11] = Preemergence, 31 g ai/ha, scale 0 to 100 (0 no effect, 100 complete control)
[12] = preemergence, 250 g ai/ha, scale 0 (no effect) to 100 (complete control)
[13] = Postemergence, 500 g ai/ha, 0 is no effect, 100 is complete control
[14] = Preemergence, 125 g ai/ha, 0 no effect, 100 complete control

Cn1nc(C(F)(F)C(F)(F)F)c(C[S+]([O-])c2cccc[n+]2[O-])c1OCC(F)(F)F (stereo not shown) [Compound 79]
Plant response rating, Ducksalad (duck salad; [5]): 90
Plant response rating, Ducksalad (duck salad; [6]): 100
Velvetleaf plant response rating (velvetleaf [1]; [7]): 100
Velvetleaf plant response rating (velvetleaf [1]; [8]): 100
Plant response rating (0 to 100), Velvetleaf (velvetleaf [1]; Postemergence, 31 g ai/ha): 0
Plant response rating (0 to 100), Velvetleaf (velvetleaf [1]; Postemergence, 62 g ai/ha): 0
Plant response rating, Velvetleaf (velvetleaf [1]; [9]): 50
Plant response rating, Velvetleaf (velvetleaf [1]; [10]): 70
Plant response rating, Velvetleaf (velvetleaf [1]; [11]): 100
Velvetleaf plant response rating (velvetleaf [1]; [12]): 100
Ragweed plant response rating (common ragweed; [7]): 50
Ragweed plant response rating (common ragweed; [8]): 100
Plant response rating (0 to 100), Ragweed (common ragweed; Postemergence, 31 g ai/ha): 0
Plant response rating (0 to 100), Ragweed (common ragweed; Postemergence, 62 g ai/ha): 40
Plant response rating, Ragweed (common ragweed; [9]): 45
Plant response rating, Ragweed (common ragweed; [10]): 50
Plant response rating, Ragweed (common ragweed; [11]): 50
Ragweed plant response rating (common ragweed; [12]): 100
Johnsongrass plant response rating (johnsongrass; [7]): 95
Johnsongrass plant response rating (johnsongrass; [8]): 95
Plant response rating (0 to 100), Johnsongrass (johnsongrass; Postemergence, 31 g ai/ha): 0
Plant response rating (0 to 100), Johnsongrass (johnsongrass; Postemergence, 62 g ai/ha): 20
Plant response rating, Johnsongrass (johnsongrass; [9]): 25
Plant response rating, Johnsongrass (johnsongrass; [10]): 50
Plant response rating, Johnsongrass (johnsongrass; [11]): 80
Johnsongrass plant response rating (johnsongrass; [12]): 95
Bermudagrass plant response rating (bermudagrass; 62 g ai/ha, Preemergence, scale 0 to 100 (0 no effect, 100 complete control)): 100
Bermudagrass plant response rating (bermudagrass; [8]): 100
Plant response rating (0 to 100), Bermudagrass (bermudagrass; Postemergence, 31 g ai/ha): 0
Plant response rating (0 to 100), Bermudagrass (bermudagrass; Postemergence, 62 g ai/ha): 0
Plant response rating, Bermudagrass (bermudagrass; [9]): 45
Plant response rating, Bermudagrass (bermudagrass; [10]): 50
Plant response rating, Bermudagrass (bermudagrass; [11]): 95
Bermudagrass plant response rating (bermudagrass; [12]): 100
Plant response rating, Corn (corn; Postemergence, 125 g ai/ha): 20
Corn plant response rating (corn; [13]): 80
Corn plant response rating (corn; [14]): 0
Plant response rating, Corn (corn; Preemergence, 500 g ai/ha): 80
Plant response rating, Foxtail, Giant (giant foxtail [2]; Postemergence, 125 g ai/ha): 80
Foxtail, Giant plant response rating (giant foxtail [2]; [13]): 90
Foxtail, Giant plant response rating (giant foxtail [2]; [14]): 90
Plant response rating, Foxtail, Giant (giant foxtail [2]; Preemergence, 500 g ai/ha): 100
Plant response rating, Barnyardgrass (barnyardgrass; [5]): 0
Plant response rating, Barnyardgrass (barnyardgrass; [6]): 70
Goosegrass plant response rating (Goosegrass; [7]): 75
Goosegrass plant response rating (Goosegrass; [8]): 100
Plant response rating (0 to 100), Goosegrass (Goosegrass; Postemergence, 31 g ai/ha): 0
Plant response rating (0 to 100), Goosegrass (Goosegrass; Postemergence, 62 g ai/ha): 0
Plant response rating, Goosegrass (Goosegrass; [9]): 40
Plant response rating, Goosegrass (Goosegrass; [10]): 50
Plant response rating, Goosegrass (Goosegrass; [11]): 70
Goosegrass plant response rating (Goosegrass; [12]): 100
Plant response rating, Rice (rice; [5]): 70
Plant response rating, Rice (rice; [6]): 80
Plant response rating, Pigweed (redroot pigweed; Postemergence, 125 g ai/ha): 30
Pigweed plant response rating (redroot pigweed; [13]): 70
Pigweed plant response rating (redroot pigweed; [14]): 90
Plant response rating, Pigweed (redroot pigweed; Preemergence, 500 g ai/ha): 100
Plant response rating, Wheat (wheat; Postemergence, 125 g ai/ha): 50
Wheat plant response rating (wheat; [13]): 70
Wheat plant response rating (wheat; [14]): 80
Plant response rating, Wheat (wheat; Preemergence, 500 g ai/ha): 100
Nightshade plant response rating (eastern black nightshade; [7]): 50
Nightshade plant response rating (eastern black nightshade; [8]): 50
Plant response rating, Nightshade (eastern black nightshade; [11]): 40
Nightshade plant response rating (eastern black nightshade; [12]): 100
Plant response rating, Velvetleaf (velvetleaf [3]; Postemergence, 125 g ai/ha): 60
Velvetleaf plant response rating (velvetleaf [3]; [13]): 80
Velvetleaf plant response rating (velvetleaf [3]; [14]): 80
Plant response rating, Velvetleaf (velvetleaf [3]; Preemergence, 500 g ai/ha): 100
Oat, Wild plant response rating (wild oat; [7]): 70
Oat, Wild plant response rating (wild oat; [8]): 85
Plant response rating (0 to 100), Oat, Wild (wild oat; Postemergence, 31 g ai/ha): 0
Plant response rating (0 to 100), Oat, Wild (wild oat; Postemergence, 62 g ai/ha): 35
Plant response rating, Oat, Wild (wild oat; [9]): 40
Plant response rating, Oat, Wild (wild oat; [10]): 50
Plant response rating, Oat, Wild (wild oat; [11]): 70
Oat, Wild plant response rating (wild oat; [12]): 90
Lambsquarters plant response rating (lambsquarters; [7]): 90
Lambsquarters plant response rating (lambsquarters; [8]): 100
Plant response rating (0 to 100), Lambsquarters (lambsquarters; Postemergence, 62 g ai/ha): 0
Plant response rating, Lambsquarters (lambsquarters; Postemergence, 125 g ai/ha): 0
Plant response rating, Lambsquarters (lambsquarters; Postemergence, 250 g ai/ha): 70
Lambsquarters plant response rating (lambsquarters; [12]): 100
Foxtail, Giant plant response rating (giant foxtail [4]; [7]): 70
Foxtail, Giant plant response rating (giant foxtail [4]; [8]): 80
Plant response rating (0 to 100), Foxtail, Giant (giant foxtail [4]; Postemergence, 31 g ai/ha): 0
Plant response rating (0 to 100), Foxtail, Giant (giant foxtail [4]; Postemergence, 62 g ai/ha): 0
Plant response rating, Foxtail, Giant (giant foxtail [4]; [9]): 50
Plant response rating, Foxtail, Giant (giant foxtail [4]; [10]): 70
Plant response rating, Foxtail, Giant (giant foxtail [4]; [11]): 70
Foxtail, Giant plant response rating (giant foxtail [4]; [12]): 100
Surinam Grass plant response rating (Surinam grass; [7]): 85
Surinam Grass plant response rating (Surinam grass; [8]): 98
Plant response rating (0 to 100), Surinam Grass (Surinam grass; Postemergence, 31 g ai/ha): 0
Plant response rating (0 to 100), Surinam Grass (Surinam grass; Postemergence, 62 g ai/ha): 0
Plant response rating, Surinam Grass (Surinam grass; [9]): 30
Plant response rating, Surinam Grass (Surinam grass; [10]): 85
Plant response rating, Surinam Grass (Surinam grass; [11]): 60
Surinam Grass plant response rating (Surinam grass; [12]): 100
